Assay results taken from ChEMBL document CHEMBL1135713, “Antitumor benzothiazoles. 16. Synthesis and pharmaceutical properties of antitumor 2-(4-aminophenyl)benzothiazole amino acid prodrugs” (J Med Chem, 2002).

Columns and labels:
[1] = Delta logP; type: ADME; details: octanol/water
[2] = log P value in cyclohexane:buffer at pH 7.4; type: physicochemical
[3] = The compound was tested for its solubility at a pH of 9.6; type: ADME; details: pH 9.6; read-out: S
[4] = The compound was tested for its solubility at a pH of 5.0; type: ADME; details: pH 5; read-out: S
[5] = The compound was tested for its solubility at a pH of 6.3; type: ADME; details: pH 6.3; read-out: S
[6] = The compound was tested for its solubility at a pH of 7.4; type: ADME; details: pH 7.4; read-out: S
[7] = The compound was tested for its solubility at a pH of 8.5; type: ADME; details: pH 8.5; read-out: S
[8] = The compound was tested for its solubility at a pH of 10.5; type: ADME; details: pH 10.5; read-out: S

| SMILES | delta logP [1] | logD [2] | solubility [3] | solubility [4] | solubility [5] | solubility [6] | solubility [7] | solubility [8] |
| --- | --- | --- | --- | --- | --- | --- | --- | --- |
| Cc1cc(-c2nc3ccccc3s2)ccc1N | 1.45 | 2.51 | – | – | – | – | – | – |
| Cc1cc(-c2nc3cc(F)ccc3s2)ccc1NC(=O)[C@@H](N)CCCCN.Cl.Cl | – | – | 20 µg/mL | > 53200 µg/mL | 7000 µg/mL | 390 µg/mL | 75 µg/mL | 10 µg/mL |
